Laboratory results as given in PubChem BioAssay AID328 (DTP/NCI, 2004).
Values joined by “and” are separate entries in the source; they are usually repeats but may differ in a detail not shown here. Identical values can stand only once. Toxic doses and inconclusive results are not listed. How the source made its calls: active means survival T/C of 150% or more; inactive means T/C below 125% in these data.

System: BDF1 mice, P388 leukemia ip, median survival T/C
Assay: NCI In Vivo Anticancer Drug Screen. Data for tumor model P388 Leukemia (intraperitoneal) in B6D2F1 (BDF1) mice
Conditions: endpoint: median survival time, higher = longer survival
Method in brief: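 Survival ratio, drug arm over vehicle arm, in mice with a transplanted tumour.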

[1] = dose: 50.0 mg/kg/injection, schedule: Q01DX009 (ip), vehicle: saline with Tween-80
[2] = dose: 100.0 mg/kg/injection, schedule: Q01DX009 (ip), vehicle: saline with Tween-80
[3] = dose: 200.0 mg/kg/injection, schedule: Q01DX009 (ip), vehicle: saline with Tween-80
[4] = dose: 100.0 mg/kg/injection, schedule: Q04DX003 (ip), vehicle: other
[5] = dose: 400.0 mg/kg/injection, schedule: Q04DX003 (ip), vehicle: other
[6] = dose: 100.0 mg/kg/injection, schedule: Q01DX009 (ip), vehicle: saline
[7] = dose: 100.0 mg/kg/injection, schedule: Q04DX003 (ip), vehicle: saline
[8] = dose: 200.0 mg/kg/injection, schedule: Q01DX009 (ip), vehicle: saline
[9] = dose: 200.0 mg/kg/injection, schedule: Q04DX003 (ip), vehicle: saline
[10] = dose: 400.0 mg/kg/injection, schedule: Q04DX003 (ip), vehicle: saline
[11] = dose: 100.0 mg/kg/injection, schedule: Q01DX009 (ip), vehicle: Klucel (hydroxypropylcellulose) (HPC)
[12] = dose: 100.0 mg/kg/injection, schedule: Q04DX003 (ip), vehicle: Klucel (hydroxypropylcellulose) (HPC)
[13] = dose: 200.0 mg/kg/injection, schedule: Q04DX003 (ip), vehicle: Klucel (hydroxypropylcellulose) (HPC)
[14] = dose: 400.0 mg/kg/injection, schedule: Q04DX003 (ip), vehicle: Klucel (hydroxypropylcellulose) (HPC)
[15] = dose: 10.0 mg/kg/injection, schedule: Q01DX009 (ip), vehicle: saline
[16] = dose: 40.0 mg/kg/injection, schedule: Q01DX009 (ip), vehicle: saline
[17] = dose: 12.5 mg/kg/injection, schedule: Q01DX009 (ip), vehicle: saline
[18] = dose: 25.0 mg/kg/injection, schedule: Q01DX009 (ip), vehicle: saline
[19] = dose: 50.0 mg/kg/injection, schedule: Q01DX009 (ip), vehicle: saline
[20] = dose: 50.0 mg/kg/injection, schedule: Q01DX005 (ip), vehicle: saline with Tween-80
[21] = dose: 25.0 mg/kg/injection, schedule: Q04DX003 (ip), vehicle: saline
[22] = dose: 50.0 mg/kg/injection, schedule: Q04DX003 (ip), vehicle: saline

Measured: T/C

CCOC(=O)Cn1nc(-c2ccc([N+](=O)[O-])o2)sc1=O
inactive: [1] 110 % of control | [2] 94 % of control | [3] 117 % of control

CCCCCCCCCC(=O)CCCCCCC
inactive: dose: 50.0 mg/kg/injection, schedule: Q01DX009 (ip), vehicle: other 100 % of control | dose: 100.0 mg/kg/injection, schedule: Q01DX009 (ip), vehicle: other 100 % of control | [4] 100 % of control | dose: 118.0 mg/kg/injection, schedule: Q04DX003 (ip), vehicle: other 104 % of control | dose: 178.0 mg/kg/injection, schedule: Q04DX003 (ip), vehicle: other 109 % of control and 118 % of control | dose: 200.0 mg/kg/injection, schedule: Q01DX009 (ip), vehicle: other 104 % of control | dose: 266.0 mg/kg/injection, schedule: Q04DX003 (ip), vehicle: other 95 % of control | dose: 400.0 mg/kg/injection, schedule: Q01DX009 (ip), vehicle: other 95 % of control | [5] 109 % of control and 118 % of control

CC(C)(C)c1cccc(C(C)(C)C)c1
inactive: dose: 100.0 mg/kg/injection, schedule: Q01DX001 (ip), vehicle: saline with Tween-80 100 % of control | dose: 200.0 mg/kg/injection, schedule: Q01DX001 (ip), vehicle: saline with Tween-80 94 % of control

CCCC(C(O)c1ccc(OC)cc1)C(O)(C(F)(F)F)C(F)(F)F (centres undefined)
inactive: [4] 90 % of control | dose: 200.0 mg/kg/injection, schedule: Q04DX003 (ip), vehicle: other 105 % of control | [5] 105 % of control

CCN(CC)C(=O)Cn1cc(F)c(N)nc1=O
inactive: [6] 95 % of control | [7] 110 % of control | [8] 90 % of control | [9] 100 % of control | [10] 100 % of control

COc1ccc(C2(C#N)CCCCC2)cc1
inactive: [11] 104 % of control | [12] 95 % of control | dose: 200.0 mg/kg/injection, schedule: Q01DX009 (ip), vehicle: Klucel (hydroxypropylcellulose) (HPC) 91 % of control | [13] 108 % of control | dose: 400.0 mg/kg/injection, schedule: Q01DX009 (ip), vehicle: Klucel (hydroxypropylcellulose) (HPC) 108 % of control | [14] 91 % of control

CC1(C)N=C(N)N=C(N)N1c1ccc(C(=O)CCl)cc1
inactive: [15] 108 % of control | dose: 20.0 mg/kg/injection, schedule: Q01DX009 (ip), vehicle: saline 108 % of control | [16] 118 % of control

Nc1ccc(OC(=O)Oc2ccc(N)cc2)cc1
inactive: dose: 264.0 mg/kg/injection, schedule: Q01DX009 (ip), vehicle: saline with Tween-80 100 % of control | dose: 400.0 mg/kg/injection, schedule: Q01DX009 (ip), vehicle: saline with Tween-80 104 % of control

NC(CCC(=O)c1ccccn1)C(=O)O (centres undefined)
inactive: [17] 103 % of control | [18] 117 % of control | [19] 98 % of control | [6] 117 % of control

Cc1ccc(C(=O)N/N=C/C(=O)O)cc1
inactive: dose: 12.5 mg/kg/injection, schedule: Q04DX003 (ip), vehicle: Klucel (hydroxypropylcellulose) (HPC) 113 % of control | dose: 25.0 mg/kg/injection, schedule: Q04DX003 (ip), vehicle: Klucel (hydroxypropylcellulose) (HPC) 106 % of control | dose: 50.0 mg/kg/injection, schedule: Q04DX003 (ip), vehicle: Klucel (hydroxypropylcellulose) (HPC) 116 % of control | [12] 106 % of control | [13] 122 % of control

CCN(CC)CCC1(C#N)Cc2ccccc2N(CC)c2ccccc21 (centres undefined)
inactive: [2] 107 % of control | [3] 113 % of control

Cc1cc(Br)c2nsnc2c1[N+](=O)[O-]
inactive: [20] 118 % of control | dose: 400.0 mg/kg/injection, schedule: Q01DX005 (ip), vehicle: saline with Tween-80 118 % of control

Nc1ccccc1CCCC(=O)O
inactive: [7] 100 % of control | [9] 100 % of control | [10] 104 % of control

CCOC(=O)c1cnc(=O)[nH]c1N
inactive: [1] 99 % of control

O=[N+]([O-])c1ccccc1NC1c2ccccc2Oc2ccccc21
inactive: [12] 116 % of control | [13] 122 % of control | [14] 122 % of control

c1ccc([P+](CCN2Cc3ccccc3C2)(c2ccccc2)c2ccccc2)cc1
inactive: dose: 3.13 mg/kg/injection, schedule: Q01DX009 (ip), vehicle: saline 99 % of control | dose: 6.25 mg/kg/injection, schedule: Q01DX009 (ip), vehicle: saline 114 % of control | [17] 105 % of control

O=C(CS)OCCOC(=O)CS
inactive: dose: 25.0 mg/kg/injection, schedule: Q01DX009 (ip), vehicle: Klucel (hydroxypropylcellulose) (HPC) 104 % of control | [21] 109 % of control | dose: 50.0 mg/kg/injection, schedule: Q01DX009 (ip), vehicle: Klucel (hydroxypropylcellulose) (HPC) 100 % of control | [22] 104 % of control | [11] 95 % of control | [7] 95 % of control

CN(C)CCNc1cc(O)c2c(c1O)C(=O)c1ccccc1C2=O
inactive: [20] 113 % of control | dose: 100.0 mg/kg/injection, schedule: Q01DX005 (ip), vehicle: saline with Tween-80 103 % of control | dose: 200.0 mg/kg/injection, schedule: Q01DX005 (ip), vehicle: saline with Tween-80 113 % of control

COc1cc2c(cc1OC)C1CNC(=O)C1C(c1ccccc1)C2 (centres undefined)
inactive: dose: 50.0 mg/kg/injection, schedule: Q01DX001 (ip), vehicle: Klucel (hydroxypropylcellulose) (HPC) 100 % of control | dose: 100.0 mg/kg/injection, schedule: Q01DX001 (ip), vehicle: Klucel (hydroxypropylcellulose) (HPC) 95 % of control | dose: 200.0 mg/kg/injection, schedule: Q01DX001 (ip), vehicle: Klucel (hydroxypropylcellulose) (HPC) 100 % of control | dose: 400.0 mg/kg/injection, schedule: Q01DX001 (ip), vehicle: Klucel (hydroxypropylcellulose) (HPC) 96 % of control

CC[C@](C)(O)C(=O)O[C@H]1C(=O)O[C@@H]2C[C@H]3C(C)=C[C@H](O)[C@@H](O)[C@]3(C)[C@H]3[C@@]4(O)OC[C@]32[C@@H]1[C@@H](C)[C@H]4O
inactive: dose: 1.0 mg/kg/injection, schedule: Q01DX010 (ip), vehicle: other 113 % of control | dose: 4.0 mg/kg/injection, schedule: Q01DX010 (ip), vehicle: other 113 % of control

C=C1C(=O)OC2/C=C(\C)C3(O)OC(C)(CC(OC(=O)C(C)C)C12)CC3O (centres undefined)
inactive: [15] 96 % of control | [16] 96 % of control

CCOP(=O)(O)OCC.[Al]
inactive: [1] 100 % of control | [2] 103 % of control | [3] 103 % of control

CC(=O)OCc1c(COC(C)=O)c(-c2ccc(Cl)c(Cl)c2)n2c1CCC2
inactive: dose: 12.5 mg/kg/injection, schedule: Q01DX009 (ip), vehicle: Klucel (hydroxypropylcellulose) (HPC) 114 % of control

Clc1ccc(C2(C3CCNCC3)CCCO2)cc1 (centres undefined)
inactive: [1] 106 % of control | [2] 90 % of control

CC1=C(C)C(=O)c2c(OC(=O)c3ccccc3)ccc(OC(=O)c3ccccc3)c2C1=O
inactive: dose: 6.25 mg/kg/injection, schedule: Q04DX003 (ip), vehicle: saline 102 % of control | dose: 12.5 mg/kg/injection, schedule: Q04DX003 (ip), vehicle: saline 103 % of control | [18] 92 % of control | [21] 94 % of control | [19] 101 % of control | [22] 99 % of control | [6] 92 % of control | [7] 94 % of control | [8] 91 % of control | dose: 400.0 mg/kg/injection, schedule: Q01DX009 (ip), vehicle: saline 89 % of control

O=C(O)c1cc(O)c(O)c(O)c1
inactive: dose: 1.25 mg/kg/injection, schedule: Q01DX009 (ip), vehicle: saline 90 % of control | dose: 2.5 mg/kg/injection, schedule: Q01DX009 (ip), vehicle: saline 95 % of control | dose: 5.0 mg/kg/injection, schedule: Q01DX009 (ip), vehicle: saline 95 % of control | [15] 115 % of control | dose: 10.0 mg/kg/injection, schedule: Q01DX010 (ip), vehicle: saline 110 % of control | dose: 20.0 mg/kg/injection, schedule: Q01DX010 (ip), vehicle: saline 100 % of control | dose: 40.0 mg/kg/injection, schedule: Q01DX010 (ip), vehicle: saline 90 % of control | [19] 100 % of control | [6] 100 % of control | [8] 104 % of control
